{"source": "patent US10730857B2", "about": "“Benzocyanine compounds” (Pierce Biotechnology, Inc., priority 2011, dated 2020)", "key": {"streptavidin (SA)": {"molecular_target": "streptavidin (SA) (Streptomyces avidinii, UniProt P22629)", "sequence (P22629 25-183, species assumed)": "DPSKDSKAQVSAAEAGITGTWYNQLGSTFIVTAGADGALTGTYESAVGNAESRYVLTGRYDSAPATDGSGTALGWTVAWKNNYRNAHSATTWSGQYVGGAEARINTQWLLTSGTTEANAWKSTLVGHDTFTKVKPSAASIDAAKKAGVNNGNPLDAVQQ", "experiment": "Labeling efficiency (degree of labeling) of streptavidin", "description": "Inventive and commercial compounds, each as the NHS ester, were conjugated to goat anti-mouse (GAM) antibodies, goat anti-rabbit (GAR) antibodies, and streptavidin (SA). GAM, GAR, and SA, at a concentration of 10 mg/ml in phosphate buffered saline (PBS), were dialyzed against 50 mM borate buffer, pH 8.5. […]\nThe labeled compounds, also termed dyes or labels, were subjected to Pierce Dye Removal Resin (PDDR) to remove the unlabeled (free) compound; 100 μl of the packed resin was used per mg of protein purified. The purified antibody-labeled dyes were then diluted 1:50 in PBS and scanned for absorbance from 700 nm to 230 nm to determine the protein concentration, and to determine the mole dye to mole protein ratio. Each conjugate was diluted 1:10 in 50% glycerol and heated in the presence of 10 mM dithiothreitol (DTT) for 5 min at 95° C., then separated by electrophoresis on polyacrylamide gels in the presence of sodium dodecyl sulfate (SDS-PAGE). The gels were scanned using the Typhoon 9400 Imager to verify removal of the unconjugated compound. Labeling efficiency was compared, with results showing degree of labeling below."}, "[1]": {"experiment": "Absorbance/emission spectral properties and fluorescence intensity of the dyes", "format": "physicochemical", "conditions": "10 μg/ml in PBS buffer pH 7.2, FIG. 1", "description": "Emission/excitation profiles for inventive and commercial compounds was determined by reconstituting the compounds in DMF at 10 mg/ml and then diluting in PBS buffer pH 7.2 to 10 μg/ml."}, "lamin A in U20S cells": {"test_system": "lamin A in U20S cells", "experiment": "Immunofluorescence, mouse anti-lamin A, U20S cells (FIG. 16)", "format": "cell-based", "description": "(§1) The inventive compounds and commercial dye were evaluated for immunofluorescence in a second cell based assay using the following protocol. Frozen U20S cell plates stored at −20° C. were placed overnight at 4° C. Storage buffer (PBS) was removed and the cells were permeabilized for 15 min (100 μl/well) with 0.1% Triton-X100 in 1×PBS buffer. Plates were blocked for 30 min in 2% BSA in 1×PBS-0.1% Trion-X100. Primary antibodies diluted in 2% BSA in 1×PBS-0.1% Trion-X100 were added to the plates (column 1-11; column 12 included only blocker) and incubated five hours at room temperature. Mouse anti-lamin A was added at 2 μg/ml and rabbit anti-lamin B1 was added at 4 μg/ml. After incubation, the antibody solution was removed from the plates and the plates were washed PBS-0.5% Tween-20 (2×100 μl/well). Next, GAM and GAR secondary antibodies labeled with DyLight 680-NHS, DyLight 680B-NHS, 679 Compound 1-NHS, and Cy5.5 Mono Ester were diluted to 4 μg/ml in PBS and incubated with the cells for one hour at room temperature. GAM and GAR conjugated to DyLight 680-NHS, DyLight 680B-NHS, 679 Compound 1-NHS, and Company B Compound at 10× molar excess were diluted to 4 μg/ml in PBS and then serially diluted 1:1 in the plate to the following concentrations: 2 μg/ml, 1 μg/ml, 0.5 μg/ml, 0.25 μg/ml, 0.125 μg/ml and/or 0.0625 μg/ml. The plates were washed 3× with 100 μl/well PBS, and Hoechst stain diluted to 0.1 μg/ml in PBS was added to each well (100 μl/well). The plates were scanned on ArrayScan Plate Reader for imaging and quantitation."}, "lamin B1 in U20S cells": {"test_system": "lamin B1 in U20S cells", "experiment": "Immunofluorescence, rabbit anti-lamin B1, U20S cells, GAR conjugates", "format": "cell-based", "description": "as §1, with “GAM and GAR conjugated to DyLight 680-NHS, DyLight 680B-NHS, 679 Compound 1-NHS, and Company B Compound at 10× molar excess were diluted to 4 μg/ml in PBS and then serially diluted 1:1 in the plate to the following concentrations: 2 μg/ml, 1 μg/ml, 0.5 μg/ml, 0.25 μg/ml, 0.125 μg/ml and/or 0.0625 μg/ml. The plates were washed 3× with 100 μl/well PBS, and Hoechst stain diluted to 0.1 μg/ml in PBS was added to each well (100 μl/well).” left out"}, "lamin A in A549 cells": {"test_system": "lamin A in A549 cells", "experiment": "Immunofluorescence, mouse anti-lamin A, A549 cells (FIG. 15)", "format": "cell-based", "conditions": "GAM conjugates at 4× to 12× molar excess", "description": "The inventive compounds were evaluated for immunofluorescence in cell based assays using the following protocol. Frozen A549 cell plates stored at −20° C. were placed for 30 min 50° C. Storage buffer (PBS) was removed and the cells were permeabilized for 15 min (100 μl/well) with 0.1% Triton-X100 in 1×PBS buffer. Plates were blocked for 30 min in 2% BSA in 1×PBS-0.1% Trion-X100. Primary antibodies diluted in 2% BSA in 1×PBS-0.1% Trion-X100 were added to the plates (column 1-11; column 12 included only blocker) and incubated […]. Mouse anti-lamin A was added at 1 μg/ml and rabbit anti-lamin B1 was added at 3 μg/ml. After overnight incubation, the antibody solution was removed from the plates and the plates were washed with PBS-0.5% Tween-20 (2×100 μl/well). GAM and GAR secondary antibodies labeled with DyLight 680-NHS, DyLight 680B-NHS, 679 Compound 1-NHS and Company B Compound-NHS were diluted to 4 μg/ml in PBS, added and incubated for one hour at room temperature. The plates were then washed three times with 100 μl/well PBS, and Hoechst stain diluted to 0.1 μg/ml in PBS was added to each well (100 μl/well). The plates were scanned on ArrayScan Plate Reader for imaging and quantitation."}}}
{"smiles": "COCC[N+]1=C(/C=C/C=C/C=C2/N(CCCCCC(=O)O)c3ccc4c(S(=O)(=O)[O-])cc(S(=O)(=O)[O-])cc4c3C2(C)C)C(C)(CCCS(=O)(=O)[O-])c2c1ccc1c(S(=O)(=O)[O-])cc(S(=O)(=O)[O-])cc21.[Na+].[Na+].[Na+].[Na+]", "note": "(centres unmarked) [679 Compound 1, 6-((E)-2-((2E,4E)-5-(3-(2-methoxyethyl)-1-methyl-6,8-disulfonato-1-(3-sulfonatopropyl)-1H-benzo[e]indol-3-ium-2-yl)penta-2,4-dien-1-ylidene)-1,1-dimethyl-6,8-disulfonato-1H-benzo[e]indol-3(2H)-yl)hexanoate]", "values": [{"measurement": "degree of labeling", "setting": "streptavidin (SA); SA-6X molar excess", "value": 4.0}, {"measurement": "degree of labeling", "setting": "streptavidin (SA); SA-8X molar excess", "value": 5.0}, {"measurement": "Max Abs", "setting": "[1]; Cary UV spectrophotometer", "value": 679, "unit": "nm"}, {"measurement": "Max E", "setting": "[1]; emission, Tecan Safire", "value": 704, "unit": "nm"}, {"measurement": "Mean Total Intensity 2X", "setting": "lamin A in U20S cells; GAM conjugated at 2X molar excess, FIG. 16", "value": 232482}, {"measurement": "Mean Total Intensity 3X", "setting": "lamin A in U20S cells; GAM conjugated at 3X molar excess, FIG. 16", "value": 263580}, {"measurement": "Mean Total Intensity 4X", "setting": "lamin A in U20S cells; GAM conjugated at 4X molar excess, FIG. 16", "value": 330865}, {"measurement": "S/B (in words)", "setting": "lamin A in U20S cells; GAM conjugates at the low molar excesses", "value": "comparable to each other and to DyLight 680"}, {"measurement": "Overall fluorescence signal intensity (in words)", "setting": "lamin B1 in U20S cells; GAR conjugates", "value": "about two times higher compared to DyLight 680"}, {"measurement": "S/B (in words)", "setting": "lamin B1 in U20S cells; GAR labeled at 2×, 3× or 4× molar excess", "value": "comparable to each other and to DyLight 680 conjugates"}, {"measurement": "performance in immunofluorescence (in words)", "setting": "lamin A in A549 cells", "value": "very similar performance to corresponding DyLight 680B conjugates"}]}
